According to ChEMBL document CHEMBL1201862, “PubChem BioAssay data set” (2004):
The source made the active and inactive calls.

Assays:
[1] = target: T1, E3 ubiquitin-protein ligase XIAP (Homo sapiens, UniProt P98170); experiment: Counter Screen using XIAP-Bir3 for Chemical Antagonists of Bir1/2 domains of IAP-family anti-apoptotic proteins. [Related pubchem assays (depositor defined):AID1018, AID1449, AID1514, AID1638, AID1749, AID1750, AID488957, AID488963]
[2] = target: T1, E3 ubiquitin-protein ligase XIAP; experiment: XIAP antagonists, biochemical, IAP family, fluorescence polarization (AID 1018); type: functional
[3] = target: Peroxisome proliferator-activated receptor gamma/Nuclear receptor coactivator 1 (Homo sapiens, UniProt P37231); experiment: (§1) TR-FRET dose response biochemical High Throughput Screening assay for agonists of the steroid receptor coactivator 1 (SRC-1) recruitment by the peroxisome proliferator-activated receptor gamma (PPAR gamma): non-selective agonists. [Related pubchem assays (depositor defined):AID1300, AID1808, AID504735, AID631]; type: protein assay
[4] = target: Peroxisome proliferator-activated receptor gamma/Nuclear receptor coactivator 3 (Homo sapiens, UniProt P37231); experiment: as §1, with “3 (SRC-3)” for “1 (SRC-1)”, “assays: 1301 (Confirmation screen.), 1048 (Primary screen.)]” for “assays (depositor defined):AID1300, AID1808, AID504735, AID631]”; type: functional
Sequence of Peroxisome proliferator-activated receptor gamma/Nuclear receptor coactivator 3 (P37231 whole entry): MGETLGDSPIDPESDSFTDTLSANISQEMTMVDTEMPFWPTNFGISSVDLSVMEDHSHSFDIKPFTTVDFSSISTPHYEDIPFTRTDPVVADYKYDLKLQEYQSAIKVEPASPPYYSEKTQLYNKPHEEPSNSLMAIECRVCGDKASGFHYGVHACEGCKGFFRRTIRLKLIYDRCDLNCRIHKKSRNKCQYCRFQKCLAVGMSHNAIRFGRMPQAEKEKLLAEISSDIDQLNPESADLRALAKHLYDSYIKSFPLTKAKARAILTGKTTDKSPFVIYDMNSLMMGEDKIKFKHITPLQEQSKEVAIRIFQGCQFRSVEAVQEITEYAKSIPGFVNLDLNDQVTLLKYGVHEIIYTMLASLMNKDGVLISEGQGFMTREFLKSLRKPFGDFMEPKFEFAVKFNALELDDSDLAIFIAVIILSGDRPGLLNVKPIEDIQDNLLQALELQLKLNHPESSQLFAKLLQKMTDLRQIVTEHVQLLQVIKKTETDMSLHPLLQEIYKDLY
Sequence of Peroxisome proliferator-activated receptor gamma/Nuclear receptor coactivator 3 (Q9Y6Q9 whole entry, further chain): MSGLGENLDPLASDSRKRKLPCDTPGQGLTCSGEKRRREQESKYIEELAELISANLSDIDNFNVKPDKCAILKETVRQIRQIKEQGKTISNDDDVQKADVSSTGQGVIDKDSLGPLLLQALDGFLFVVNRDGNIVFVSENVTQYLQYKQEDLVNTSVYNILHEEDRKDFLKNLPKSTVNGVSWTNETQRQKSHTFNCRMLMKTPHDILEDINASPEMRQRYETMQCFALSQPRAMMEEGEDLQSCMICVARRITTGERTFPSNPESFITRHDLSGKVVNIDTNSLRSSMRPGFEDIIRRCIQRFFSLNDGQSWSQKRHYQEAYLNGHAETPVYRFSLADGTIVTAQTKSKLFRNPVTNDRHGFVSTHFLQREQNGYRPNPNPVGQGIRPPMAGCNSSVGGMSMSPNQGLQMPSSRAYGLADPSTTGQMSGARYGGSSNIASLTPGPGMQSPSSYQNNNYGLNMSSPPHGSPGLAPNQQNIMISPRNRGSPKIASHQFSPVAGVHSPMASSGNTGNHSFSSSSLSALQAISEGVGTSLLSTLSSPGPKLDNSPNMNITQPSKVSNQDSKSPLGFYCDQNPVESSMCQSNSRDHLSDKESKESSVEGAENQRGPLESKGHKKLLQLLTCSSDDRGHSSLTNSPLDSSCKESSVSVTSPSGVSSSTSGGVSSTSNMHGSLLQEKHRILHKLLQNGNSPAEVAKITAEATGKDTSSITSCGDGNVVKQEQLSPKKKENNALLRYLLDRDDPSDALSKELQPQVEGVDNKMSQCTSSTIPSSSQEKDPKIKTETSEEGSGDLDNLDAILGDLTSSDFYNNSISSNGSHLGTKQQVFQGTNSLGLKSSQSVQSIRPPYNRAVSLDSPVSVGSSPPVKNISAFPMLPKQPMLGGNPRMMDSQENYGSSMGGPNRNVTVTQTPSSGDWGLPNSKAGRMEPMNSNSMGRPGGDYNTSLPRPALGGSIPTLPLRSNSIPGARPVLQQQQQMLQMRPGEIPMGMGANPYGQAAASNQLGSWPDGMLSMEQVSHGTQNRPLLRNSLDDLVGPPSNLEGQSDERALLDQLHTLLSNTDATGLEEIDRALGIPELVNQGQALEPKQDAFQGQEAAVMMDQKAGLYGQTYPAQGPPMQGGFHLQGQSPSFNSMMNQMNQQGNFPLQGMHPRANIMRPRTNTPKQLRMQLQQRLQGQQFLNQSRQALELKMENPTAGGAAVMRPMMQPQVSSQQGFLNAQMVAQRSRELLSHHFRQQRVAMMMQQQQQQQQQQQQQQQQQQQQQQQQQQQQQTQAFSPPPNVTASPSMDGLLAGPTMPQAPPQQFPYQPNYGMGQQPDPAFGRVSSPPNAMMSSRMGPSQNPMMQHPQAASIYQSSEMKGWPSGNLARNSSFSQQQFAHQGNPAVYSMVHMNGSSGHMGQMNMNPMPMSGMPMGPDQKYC

[5] = target: Peroxisome proliferator-activated receptor gamma/Nuclear receptor coactivator 2 (Homo sapiens, UniProt P37231); experiment: TR-FRET dose response biochemical High Throughput Screening assay for agonists of the steroid receptor coactivator 2 (SRC-2) recruitment by the peroxisome proliferator-activated receptor gamma (PPAR gamma): non-selective agonists. [Related pubchem assays: 1297, 1032 ]; type: functional
Sequence of Peroxisome proliferator-activated receptor gamma/Nuclear receptor coactivator 2 (P37231 whole entry): as the sequence (P37231 whole entry) above
Sequence of Peroxisome proliferator-activated receptor gamma/Nuclear receptor coactivator 2 (Q15596 whole entry, further chain): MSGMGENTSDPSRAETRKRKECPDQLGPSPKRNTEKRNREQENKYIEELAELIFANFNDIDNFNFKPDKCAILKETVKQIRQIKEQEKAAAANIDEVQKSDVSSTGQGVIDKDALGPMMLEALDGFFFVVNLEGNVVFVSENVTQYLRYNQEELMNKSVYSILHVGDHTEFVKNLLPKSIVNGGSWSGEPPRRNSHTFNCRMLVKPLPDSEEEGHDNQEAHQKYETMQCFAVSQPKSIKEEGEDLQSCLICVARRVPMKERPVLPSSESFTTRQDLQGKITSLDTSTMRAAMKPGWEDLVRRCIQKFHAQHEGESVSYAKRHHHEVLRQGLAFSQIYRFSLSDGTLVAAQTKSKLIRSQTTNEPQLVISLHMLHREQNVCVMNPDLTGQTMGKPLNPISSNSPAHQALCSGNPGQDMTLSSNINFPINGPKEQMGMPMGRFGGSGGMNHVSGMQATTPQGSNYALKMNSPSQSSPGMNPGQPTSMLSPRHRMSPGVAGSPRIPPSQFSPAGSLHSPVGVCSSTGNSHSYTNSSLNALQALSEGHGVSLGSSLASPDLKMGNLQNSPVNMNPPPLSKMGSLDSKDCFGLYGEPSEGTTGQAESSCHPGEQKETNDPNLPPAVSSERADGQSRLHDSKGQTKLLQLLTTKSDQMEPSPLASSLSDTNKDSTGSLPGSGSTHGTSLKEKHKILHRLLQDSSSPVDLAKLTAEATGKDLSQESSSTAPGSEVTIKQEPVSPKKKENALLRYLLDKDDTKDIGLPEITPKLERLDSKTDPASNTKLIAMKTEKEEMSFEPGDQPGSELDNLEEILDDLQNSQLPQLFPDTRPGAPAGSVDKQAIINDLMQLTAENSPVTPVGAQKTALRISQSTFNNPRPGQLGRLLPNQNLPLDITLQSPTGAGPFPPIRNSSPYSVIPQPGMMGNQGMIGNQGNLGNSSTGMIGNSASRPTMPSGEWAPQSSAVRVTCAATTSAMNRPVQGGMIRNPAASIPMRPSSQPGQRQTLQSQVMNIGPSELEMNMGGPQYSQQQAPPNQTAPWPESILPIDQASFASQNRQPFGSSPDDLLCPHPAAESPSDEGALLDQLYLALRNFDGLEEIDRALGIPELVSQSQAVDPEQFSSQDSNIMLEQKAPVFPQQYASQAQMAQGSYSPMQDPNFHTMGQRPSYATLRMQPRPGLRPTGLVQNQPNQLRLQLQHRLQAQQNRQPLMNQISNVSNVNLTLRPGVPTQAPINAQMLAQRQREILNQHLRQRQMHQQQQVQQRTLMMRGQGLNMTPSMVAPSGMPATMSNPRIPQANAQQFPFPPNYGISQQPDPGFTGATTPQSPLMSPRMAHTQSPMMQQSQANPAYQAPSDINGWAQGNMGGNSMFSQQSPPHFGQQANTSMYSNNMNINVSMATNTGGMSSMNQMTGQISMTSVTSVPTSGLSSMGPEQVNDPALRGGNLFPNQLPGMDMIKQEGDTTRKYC

[6] = target: Mitogen-activated protein kinase 10 (Homo sapiens, UniProt P53779); experiment: Dose response biochemical screening assay for inhibitors of c-Jun N-Terminal Kinase 3 (JNK3). [Related pubchem assays: 746 ]
Sequence of Mitogen-activated protein kinase 10 (P53779 whole entry): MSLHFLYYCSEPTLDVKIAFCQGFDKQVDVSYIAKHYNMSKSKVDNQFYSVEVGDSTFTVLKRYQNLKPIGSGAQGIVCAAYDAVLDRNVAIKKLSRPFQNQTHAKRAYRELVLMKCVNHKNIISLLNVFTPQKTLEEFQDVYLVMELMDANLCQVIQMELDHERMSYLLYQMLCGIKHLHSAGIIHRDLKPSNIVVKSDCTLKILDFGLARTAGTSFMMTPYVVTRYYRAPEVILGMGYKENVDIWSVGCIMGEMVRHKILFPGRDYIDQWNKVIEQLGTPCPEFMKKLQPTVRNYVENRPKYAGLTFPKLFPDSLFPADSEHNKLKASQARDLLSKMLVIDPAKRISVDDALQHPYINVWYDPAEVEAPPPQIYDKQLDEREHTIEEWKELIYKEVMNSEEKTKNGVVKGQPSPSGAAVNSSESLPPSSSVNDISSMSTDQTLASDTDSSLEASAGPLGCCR

Cytochrome P450 2C19 = Cytochrome P450 2C19 (Homo sapiens, UniProt P33261); experiment: Cytochrome panel assay with activity outcomes. Panel member name: p450-cyp2c19 Compounds with AC50 equal or less than 10 uM are considered active; type: functional; conditions: read-out: AC50
P388/ADR = experiment: cells; type: functional; conditions: Mus musculus
SN12K1 = experiment: cells; type: functional; conditions: Homo sapiens
P388 = experiment: cells; type: functional; conditions: Mus musculus
Aminopeptidase N = target: T2, Aminopeptidase N (Plasmodium falciparum FcB1/Columbia, UniProt O96935); experiment: P. falciparum M1AAP inhibitors, biochemical, fluorogenic H-Leu-NHMec substrate, 1536-well (AID 1445); design: species or system Plasmodium falciparum 3D7, 3D7
T2 sequence (O96935 whole entry): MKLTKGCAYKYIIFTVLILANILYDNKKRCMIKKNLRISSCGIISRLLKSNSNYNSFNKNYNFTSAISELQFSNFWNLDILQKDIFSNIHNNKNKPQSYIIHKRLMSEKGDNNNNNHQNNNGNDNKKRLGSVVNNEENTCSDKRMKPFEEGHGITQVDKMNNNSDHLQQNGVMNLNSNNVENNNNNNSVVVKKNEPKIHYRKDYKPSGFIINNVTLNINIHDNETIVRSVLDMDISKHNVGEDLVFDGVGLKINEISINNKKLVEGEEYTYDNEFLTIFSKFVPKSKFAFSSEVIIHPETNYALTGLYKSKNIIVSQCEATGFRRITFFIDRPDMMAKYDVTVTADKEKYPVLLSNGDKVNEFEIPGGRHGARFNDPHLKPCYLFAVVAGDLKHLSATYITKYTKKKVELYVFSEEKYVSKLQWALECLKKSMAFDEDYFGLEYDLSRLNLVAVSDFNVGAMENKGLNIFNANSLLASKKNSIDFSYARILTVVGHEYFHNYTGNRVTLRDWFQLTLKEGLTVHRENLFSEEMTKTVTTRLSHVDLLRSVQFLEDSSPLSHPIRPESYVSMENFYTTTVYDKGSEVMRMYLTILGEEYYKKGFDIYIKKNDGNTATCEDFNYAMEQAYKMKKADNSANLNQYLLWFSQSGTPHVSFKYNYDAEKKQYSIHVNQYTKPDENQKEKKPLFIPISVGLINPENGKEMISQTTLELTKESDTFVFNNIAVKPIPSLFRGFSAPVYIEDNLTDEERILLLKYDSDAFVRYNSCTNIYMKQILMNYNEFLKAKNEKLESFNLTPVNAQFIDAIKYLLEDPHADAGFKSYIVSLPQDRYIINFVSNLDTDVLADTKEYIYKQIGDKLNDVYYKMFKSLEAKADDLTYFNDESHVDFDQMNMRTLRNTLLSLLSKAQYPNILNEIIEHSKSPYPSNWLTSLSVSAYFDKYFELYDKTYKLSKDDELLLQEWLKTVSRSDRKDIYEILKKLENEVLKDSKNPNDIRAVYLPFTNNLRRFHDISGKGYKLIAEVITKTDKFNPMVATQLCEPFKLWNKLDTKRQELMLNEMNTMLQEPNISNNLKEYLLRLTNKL

Genome polyprotein = Genome polyprotein (dengue virus type 2, UniProt P29990); experiment: Dengue-2 NS5 methyltransferase inhibitors, primary screen, biochemical, confirmation dose response (AID 588689); type: functional
[7] = off-target signal loss in HeLa-CEM21 co-culture – HeLa F-luc CTL cells, cherry-picked, counter-screen for HIV-1 Env fusion inhibitor project, dose response (AID 652040); type: functional, cell-based;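 further: potency for signal decrease marking cytotoxic or nonspecific inhibition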
[8] = inhibitors of clade B AD8 Env fusion, dose response, cell-based, cherry-pick (AID 652062); type: functional;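 further: luciferase signal from cell-cell fusion driven by HIV-1 clade B AD8 Env; potency is for inhibitors of fusion seen as a drop in luminescence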
[9] = target: T3, Rac GTPase-activating protein 1 (Homo sapiens, UniProt Q9H0H5); experiment: MgcRacGAP GTPase-activating activity inhibitors, confirmation, biochemical, ADP Hunter fluorescence, primary and confirmatory (AID 624330); type: functional
T3 sequence (Q9H0H5 whole entry): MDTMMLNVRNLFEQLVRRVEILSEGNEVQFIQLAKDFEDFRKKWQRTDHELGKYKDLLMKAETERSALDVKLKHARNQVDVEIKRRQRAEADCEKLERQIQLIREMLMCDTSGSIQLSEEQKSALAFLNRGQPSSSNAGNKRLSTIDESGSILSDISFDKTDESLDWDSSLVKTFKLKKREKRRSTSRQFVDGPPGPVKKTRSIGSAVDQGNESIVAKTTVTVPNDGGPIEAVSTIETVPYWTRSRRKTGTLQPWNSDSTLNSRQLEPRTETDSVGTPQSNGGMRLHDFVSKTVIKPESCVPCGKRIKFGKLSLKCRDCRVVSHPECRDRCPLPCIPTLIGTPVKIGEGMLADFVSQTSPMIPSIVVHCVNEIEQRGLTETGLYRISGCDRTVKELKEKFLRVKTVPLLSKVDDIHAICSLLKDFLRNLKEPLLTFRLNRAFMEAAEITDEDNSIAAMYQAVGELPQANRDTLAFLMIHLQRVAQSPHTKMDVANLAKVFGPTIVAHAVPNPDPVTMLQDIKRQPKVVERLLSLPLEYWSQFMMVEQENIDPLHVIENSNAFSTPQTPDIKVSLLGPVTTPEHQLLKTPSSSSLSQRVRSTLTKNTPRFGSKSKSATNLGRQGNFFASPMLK

T1 sequence (P98170 whole entry): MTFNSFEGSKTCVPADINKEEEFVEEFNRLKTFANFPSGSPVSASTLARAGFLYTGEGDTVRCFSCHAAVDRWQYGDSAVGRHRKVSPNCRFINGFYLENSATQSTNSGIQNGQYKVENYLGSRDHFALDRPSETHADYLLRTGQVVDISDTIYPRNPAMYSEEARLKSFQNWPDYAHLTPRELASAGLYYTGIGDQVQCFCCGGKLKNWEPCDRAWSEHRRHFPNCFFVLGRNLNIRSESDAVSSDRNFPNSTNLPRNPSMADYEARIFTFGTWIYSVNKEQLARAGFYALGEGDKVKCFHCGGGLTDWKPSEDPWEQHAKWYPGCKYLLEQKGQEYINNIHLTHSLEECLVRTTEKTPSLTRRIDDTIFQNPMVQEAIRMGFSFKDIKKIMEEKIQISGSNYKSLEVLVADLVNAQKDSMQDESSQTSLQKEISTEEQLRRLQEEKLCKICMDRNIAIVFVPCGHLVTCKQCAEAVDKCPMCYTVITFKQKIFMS

IC50 [1]	IC50 [2]	EC50 [3]	EC50 [4]	EC50 [5]	SMILES	other results
> 100 µM (inactive)	> 100 µM (not active)	–	–	–	COc1ccc(S(=O)(=O)CCC(=O)NC2CCCCC2)cc1	–
–	–	9.02 µM (active)	> 79.4 µM (not active)	5.6 µM (active)	c1ccc2[nH]c(CSc3ncnc4c3oc3ccccc34)nc2c1	IC50 [6]: > 93.1 µM (not active)
–	–	–	–	–	Cc1c2cnccc2c(C)c2c1c1ccccc1n2CCOC(=O)c1ccccc1	AC50 (Cytochrome P450 2C19): 0.794 µM (inconclusive); GI50 (P388/ADR): 9.23 µM (inactive); GI50 (SN12K1): 10.3 µM (inactive); GI50 (P388): 4.95 µM (inactive)
–	–	–	–	–	COc1cccc(C2CC(c3c(O)nc4ccc(Cl)cc4c3-c3ccccc3)=NN2S(C)(=O)=O)c1OC (centres undefined)	IC50 (Aminopeptidase N): 78.2 µM (active)
–	–	–	–	–	O=C(O)c1cccc2c1C(=O)c1ccc(-c3ccc(F)cc3OCc3ccccc3)cc1S2(=O)=O	IC50 (Genome polyprotein): 50.5 µM (active)
–	–	–	–	–	Cn1c(SCc2nc(-c3ccc(Cl)cc3)no2)nnc1-c1cccs1	AC50 [7]: 3.1 µM (active); AC50 [8]: 9.06 µM (active)
–	–	> 79.4 µM (inactive)	> 79.4 µM (not active)	> 26.5 µM (not active)	CCOC(=O)c1c(C)nsc1S	IC50 [6]: 30.5 µM (not active); IC50 [9]: 56.6 µM (active)
–	–	> 79.4 µM (inactive)	> 79.4 µM (not active)	> 79.4 µM (not active)	CN(Cc1ccccc1)C(=O)CSc1cc(=O)n(C)c2ccccc12	–
> 100 µM (inactive)	> 100 µM (not active)	–	–	–	CCCc1nc(SCC(=O)Nc2ccc(S(=O)(=O)N(C)C)cc2)c2ccccc2n1	–
–	–	> 79.4 µM (inactive)	> 79.4 µM (not active)	> 26.5 µM (not active)	CC(=O)CSc1ncnc2c1oc1ccccc12	–
> 100 µM (inactive)	> 100 µM (not active)	–	–	–	O=C(C1CC(c2ccc(F)cc2)=NO1)N1CCc2ccccc2C1 (centres undefined)	–
–	–	5 µM (active)	91.3 µM (not active)	4.23 µM (active)	CCCCOC(=O)CNc1nnc(S)nc1O	–
> 100 µM (inactive)	> 100 µM (not active)	–	–	–	COC(=O)/C=C/C(=O)N1CCN(c2ccccc2)CC1	–
